The text below walks through data of US20180193274A1, “COMPOSITIONS FOR ILEO-JEJUNAL DRUG DELIVERY” (Principia Biopharma Inc., priority 2014, published 2018).

Data set [1] in a line: Pharmacokinetic experiment comparing oral gavage, intra-duodenal and intra-jejunal dosing in rats. In kind it is in vivo, Wister-Hans rats. From the text:
FIG. 1 depicts the results of a pharmacokinetic experiment comparing oral and intra-duodenal gavage dosing of (R)-2-(3-(4-amino-3-(2-fluoro-4-phenoxyphenyl)-1H-pyrazolo[3,4-d]pyrimidin-1-yl)piperidine-1-carbonyl)-4-methyl-4-(4-(oxetan-3-yl)piperazin-1-yl)pent-2-enenitrile having E/Z ratio of about 9:1. The area under the curve (AUC) and the Cmax are plotted.
(R)-2-(3-(4-amino-3-(2-fluoro-4-phenoxyphenyl)-1H-pyrazolo[3,4-d]pyrimidin-1-yl)piperidine-1-carbonyl)-4-methyl-4-(4-(oxetan-3-yl)piperazin-1-yl)pent-2-enenitrile was dosed in 10 mg/mL aqueous citrate solution at 20 mg/kg to Wister-Hans rats. Anhydrous citric acid (0.5 equivalents) was added to the free base of (R)-2-(3-(4-amino-3-(2-fluoro-4-phenoxyphenyl)-1H-pyrazolo[3,4-d]pyrimidin-1-yl)piperidine-1-carbonyl)-4-methyl-4-(4-(oxetan-3-yl)piperazin-1-yl)pent-2-enenitrile. The experiment was repeated 3 times each with 2 separate arms, and one oral gavage arm was included in each study. Intra-jejunal (IJ) and intra-duodenal dosing was done in cannulated rats. In the first study, there was a 40-fold increase in the AUC for the IJ-dosed group compared to the PO group, and the metabolite present in the IJ-group was reduced 10-fold.

For data set [2] the following is noted: cited from earlier work.
[3] abbreviates: 20 mg/kg, intra-duodenal vs oral, FIG. 1.
[4] abbreviates: 20 mg/kg, intra-jejunal vs oral, FIG. 1.

Structures are written as SMILES. Where two headings read alike, the source gives them in different places.

Consider `CC(C)(C=C(C#N)C(=O)N1CCC[C@@H](n2nc(-c3ccc(Oc4ccccc4)cc3F)c3c(N)ncnc32)C1)N1CCN(C2COC2)CC1` [(R)-2-(3-(4-amino-3-(2-fluoro-4-phenoxyphenyl)-1H-pyrazolo[3,4-d]pyrimidin-1-yl)piperidine-1-carbonyl)-4-methyl-4-(4-(oxetan-3-yl)piperazin-1-yl)pent-2-enenitrile], for which, in data set [1] (setting [3]), the “AUC, ID dosing compared to PO dosing” value is recorded as “increased” and the “Cmax, ID dosing compared to PO dosing” value was “increased”. Further, in data set [1] (setting [4]), the “AUC, IJ dosing compared to PO dosing” value is reported as “substantially increased” and the “Cmax, IJ dosing compared to PO dosing” value was “substantially increased”. Also, the “increase in the AUC for the IJ-dosed group compared to the PO group” value in data set [1] (first study, 20 mg/kg in 10 mg/mL aqueous citrate solution, intra-jejunal vs oral gavage) came to 40 fold.
For `C=CC(=O)N1CCC[C@@H](n2nc(-c3ccc(Oc4ccccc4)cc3)c3c(N)ncnc32)C1` [ibrutinib, 1-[(3R)-3-[4-Amino-3-(4-phenoxyphenyl)-1H-pyrazolo[3,4-d]pyrimidin-1-yl]piperidin-1-yl]prop-2-en-1-one], the figures for the “bioavailability as determined by AUC” value in data set [2] (administered intraduodenally) and in data set [2] (direct oral administration) were 100% and 21%, respectively.
